Measurements published in patent US9840464B2, “IAP binding compounds” (TetraLogic Birinapant UK Ltd., priority 2004, dated 2017).

Key:
[1] = target: XIAP-BIR3 (Homo sapiens, UniProt P98170); assay: XIAP BIR3 fluorescence polarization binding assay (competition with AbuRPF-K(5-Fam)-NH2); settings: 5 nM AbuRPF-K(5-Fam)-NH2, 40 nM XIAP-BIR3, pH 7.5; Kd calculated from measured IC50; read-out: KD Range
Method: Binding constants (Kd) were measured using fluorescence polarization as described by Zaneta Nikolovska-Coleska, Renxiao Wang, Xueliang Fang, Hongguang Pan, York Tomita, Peng Li, Peter P. Roller, Krzysztof Krajewski, Naoyuki Saito, Jeanne Stuckey and Shaomeng Wang, in “Development and Optimization of a Binding Assay for the XIAP BIR3 Domain Using Fluorescence Polarization”, Analytical Biochemistry 2004, 332, 261-273). Briefly, test IAP binding compounds at various concentrations for binding measurements were mixed with 5 nM fluorescently labeled peptide (AbuRPF-K(5-Fam)-NH2) and 40 nM of XIAP-BIR3 for 15 minutes at room temperature in 100 μL of 0.1M Potassium Phosphate buffer, pH 7.5 containing 100 μg/ml bovine γ-globulin. Following incubation, the polarization values (mP) were measured on a Victor^2V using a 485 nm excitation filter and a 520 nm emission filter. IC50 values were determined from the plot using nonlinear least-squares analysis using GraphPad Prism. The Kd values of competitive inhibitors were calculated using the equation described by Zaneta Nikolovska-Coleska et al. based upon the measured IC50 values, the Kd value of the probe and XIAP BIR3 complex, and the concentrations of the protein and probe in the competition assay. In various examples of IAP binding or IAP binding cargo molecules ranges for Kd values: Group A: Kd<0.1 μM; Group B: Kd=0.1-1 μM; Group C: Kd=1-10 μM; Group D: Kd>10 μM.

[2] = system: SK-OV-3 cells; assay: MTT cell growth/survival assay; format: cell-based; settings: Homo sapiens, 72 hrs incubation, drug concentration that results in 50% cell survival
Method: The MTT assay is an example of an assay that has been used for measuring cell growth as previously described (Hansen, M. B., Nielsen, S. E., and Berg, K. J. Immunol. Methods 1989, 119, 203-210) and incorporated herein by reference in its entirety. Briefly, SK-OV-3 cells were seeded in 96-well plates in McCoy's medium containing 10% fetal bovine serum […] (20,000 per well) and incubated overnight at 37° C. Next day, test compounds were added at various concentrations typically from about 10 to about 0.0001 μM and the plates were incubated at 37° C. for an additional 72 hrs. This incubation time was optimal for measuring inhibitory effects of different analogs. 50 microliters of 5 mg/mL MTT reagent to each well was added and the plates were incubated at 37° C. for 3 hours. At the end of incubation period, 50 microliters of DMSO was added to each well to dissolve cells and the optical density (OD) of the wells was measured with a microplate reader (Victor^2 1420, Wallac, Finland) at 535 nm. Cell survival (CS) was calculated by the following equation: CS=(OD treated well/mean OD control wells)×100%
The EC50, defined as the drug concentration that results in 50% CS, was derived by calculating the point where the dose-response curve crosses the 50% CS point using GraphPad Prism.

Sequence of XIAP-BIR3 (P98170 241-356 limits assumed): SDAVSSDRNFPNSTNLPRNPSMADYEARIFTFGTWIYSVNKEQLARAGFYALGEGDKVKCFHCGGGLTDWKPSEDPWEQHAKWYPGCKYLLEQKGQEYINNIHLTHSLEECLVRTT

Structure (SMILES): COc1ccc2occ(CC3CCCN3C(=O)C(NC(=O)C(C)N)C(C)C)c2c1 (centres unmarked) [Entry 7-76, 2-Amino-N-{1-[2-(5-methoxy-benzofuran-3-ylmethyl)-pyrrolidine-1-carbonyl]-2-methyl-propyl}-propionamide]
- Kd [1]: 1000 to 10000 nM

Structure (SMILES): CC(N)C(=O)NC(C(=O)N1CCCC1Cc1coc2ccc(OCC3CC3)cc12)C(C)C (centres unmarked) [Entry 7-77]
- Kd [1]: > 10000 nM

Structure (SMILES): CC(N)C(=O)NC(C(=O)N1CCCC1Cc1coc2ccc(-c3ccncc3)cc12)C(C)C (centres unmarked) [Entry 8-78]
- Kd [1]: 100 to 1000 nM

Structure (SMILES): CC(N)C(=O)NC(C(=O)N1CCCC1Cc1c(Br)oc2ccccc12)C(C)C (centres unmarked) [Entry 9-80]
- Kd [1]: 100 to 1000 nM

Structure (SMILES): CC(C)[C@H](NC(=O)[C@H](C)N)C(=O)N1CCC[C@H]1Cc1c(-c2ccncc2)oc2ccccc12 [Entry 9-81, 2S-Amino-N-{2-methyl-1S-[2S-(2-pyridin-4-yl-benzofuran-3-ylmethyl)-pyrrolidine-1-carbonyl]-propyl}-propionamide]
- Kd [1]: < 100 nM

Structure (SMILES): CC(N)C(=O)NC(C(=O)N1CCCC1Cc1c(-c2cccnc2)oc2ccccc12)C(C)C (centres unmarked) [Entry 9-82]
- Kd [1]: 100 to 1000 nM

Structure (SMILES): CC(N)C(=O)NC(C(=O)N1CCCC1Cc1c(-c2nccs2)oc2ccccc12)C(C)C (centres unmarked) [Entry 9-85]
- Kd [1]: 100 to 1000 nM

Structure (SMILES): CC(N)C(=O)NC(C(=O)N1CCCC1Cc1c(-c2cnccn2)oc2ccccc12)C(C)C (centres unmarked) [Entry 9-86]
- Kd [1]: < 100 nM

Structure (SMILES): CC(N)C(=O)NC(C(=O)N1CCCC1Cc1c(-c2ccccc2)[nH]c2ccccc12)C(C)C (centres unmarked) [Entry 9-88]
- Kd [1]: 1000 to 10000 nM

Structure (SMILES): CCOC(=O)CCc1oc2ccccc2c1CC1CCCN1C(=O)C(NC(=O)C(C)N)C(C)C (centres unmarked) [Entry 10-89, 3-(3-{1-[2-(2-Amino-propionylamino)-3-methyl-butyryl]-pyrrolidin-2-ylmethyl}-benzofuran-2-yl)-propionic acid ethyl ester]
- Kd [1]: 1000 to 10000 nM

Structure (SMILES): CC(N)C(=O)NC(C(=O)N1CCCC1Cc1c(CCC(=O)O)oc2ccccc12)C(C)C (centres unmarked) [Entry 10-90]
- Kd [1]: 100 to 1000 nM

Structure (SMILES): C[C@H](N)C(=O)N[C@H]1CCCNC(=O)CCc2oc3ccccc3c2C[C@@H]2CCCN2C1=O [Entry 11-91, Ornithine-derived Lactam]
- Kd [1]: 100 to 1000 nM

Structure (SMILES): CC(N)C(=O)NC1CCCCNC(=O)CCc2oc3ccccc3c2CC2CCCN2C1=O (centres unmarked) [Entry 12-92]
- Kd [1]: 1000 to 10000 nM

Structure (SMILES): C[C@H](N)C(=O)N[C@H]1Cc2ccc(cc2)OCCCc2oc3ccccc3c2C[C@@H]2CCCN2C1=O [Entry 13-93, Tyrosine-derived Cyclic Ether]
- Kd [1]: 100 to 1000 nM

Structure (SMILES): CC(=O)n1cc(C[C@@H]2CCCN2C(=O)[C@@H](NC(=O)[C@H](C)N)C(C)C)c2ccccc21 [Entry 14-94, N-{1S-[2S-(1-Acetyl-1H-indol-3-ylmethyl)-pyrrolidine-1-carbonyl]-2-methyl-propyl}-2S-amino-propionamide]
- Kd [1]: < 100 nM

Structure (SMILES): CC(=O)n1cc(CC2CCCN2C(=O)C(NC(=O)CN)C(C)C)c2ccccc21 (centres unmarked) [Entry 14-95]
- Kd [1]: > 10000 nM

Structure (SMILES): CNC(C)C(=O)NC(C(=O)N1CCCC1Cc1cn(C(C)=O)c2cc(F)ccc12)C(C)(C)C (centres unmarked) [Entry 14-96]
- Kd [1]: 100 to 1000 nM

Structure (SMILES): CNC(C)C(=O)NC(C(=O)N1CCCC1Cc1cn(C(C)=O)c2cc(F)ccc12)C1CCCCC1 (centres unmarked) [Entry 14-97]
- Kd [1]: 100 to 1000 nM

Structure (SMILES): CC(=O)n1cc(CC2CCCN2C(=O)C(NC(=O)C(C)N)C(C)C)c2cccc(C)c21 (centres unmarked) [Entry 14-98]
- Kd [1]: < 100 nM

Structure (SMILES): CC(C)[C@H](NC(=O)[C@H](C)N)C(=O)N1CCC[C@H]1Cc1c[nH]c2ccccc12 [Entry 14-99, 2S-Amino-N-{1S-[2S-(1H-indol-3-ylmethyl)-pyrrolidine-1-carbonyl]-2-methyl-propyl}-propionamide]
- Kd [1]: 100 to 1000 nM

Structure (SMILES): Cc1cccc2c(CC3CCCN3C(=O)C(NC(=O)C(C)N)C(C)C)c[nH]c12 (centres unmarked) [Entry 14-100]
- Kd [1]: < 100 nM

Structure (SMILES): CC(NC(=O)OC(C)(C)C)C(=O)NC(C(=O)N1CCCC1Cc1cn(C(=O)OC(C)(C)C)c2ccccc12)C(C)C (centres unmarked) [Entry 14-101]
- Kd [1]: > 10000 nM

Structure (SMILES): CC#CCn1cc(CC2CCCN2C(=O)C(NC(=O)C(C)N)C(C)C)c2ccccc21 (centres unmarked) [Entry 14-102]
- Kd [1]: 100 to 1000 nM

Structure (SMILES): C#CCn1cc(CC2CCCN2C(=O)C(NC(=O)C(C)N)C(C)C)c2ccccc21 (centres unmarked) [Entry 14-103]
- Kd [1]: < 100 nM

Structure (SMILES): CNC(C)C(=O)NC(C(=O)N1CCCC1Cc1c[nH]c2cc(F)ccc12)C1CCCCC1 (centres unmarked) [Entry 14-104]
- EC50 [2]: 0.515 ± 0.093 µM
- Kd [1]: 100 to 1000 nM

Structure (SMILES): Cc1ccc(S(=O)(=O)n2cc(C[C@@H]3CCCN3C(=O)[C@@H](NC(=O)[C@H](C)N)C(C)C)c3ccccc32)cc1 [Entry 15-107, 2S-Amino-N-(2-methyl-1S-{2S-[1-(toluene-4-sulfonyl)-1H-indol-3-ylmethyl]-pyrrolidine-1-carbonyl}-propyl)-propionamide]
- Kd [1]: < 100 nM

Structure (SMILES): CNC(C)C(=O)NC(C(=O)N1CCCC1Cc1c(-c2cccs2)[nH]c2cc(F)ccc12)C(C)(C)C (centres unmarked) [Entry 15-108]
- Kd [1]: < 100 nM

Structure (SMILES): CNC(C)C(=O)NC(C(=O)N1CCCC1Cc1cn(CCOCCOCCOC)c2cc(F)ccc12)C1CCCCC1 (centres unmarked) [Entry 16-109, N-{1-Cyclohexyl-2-[2-(6-fluoro-1-{2-[2-(2-methoxy-ethoxy)-ethoxy]-ethyl}-1H-indol-3-ylmethyl)-pyrrolidin-1-yl]-2-oxo-ethyl}-2-methylamino-propionamide]
- EC50 [2]: 0.06 ± 0.026 µM
- Kd [1]: 100 to 1000 nM

Structure (SMILES): CCC(NC)C(=O)NC(C(=O)N1CCCC1Cc1cn(CCOCCOCCOC)c2ccccc12)C1CCCCC1 (centres unmarked) [Entry 16-110]
- Kd [1]: 100 to 1000 nM

Structure (SMILES): CNC(C)C(=O)NC(C(=O)N1CCCC1Cc1cn(CCOCCOCCOC)c2ccccc12)C1CCCCC1 (centres unmarked) [Entry 16-111]
- Kd [1]: 100 to 1000 nM

Structure (SMILES): CNC(C)C(=O)NC(C(=O)N1CCCC1Cc1c(Br)n(CCOCCOCCO)c2cc(F)ccc12)C(C)(C)C (centres unmarked) [Entry 16-112]
- Kd [1]: < 100 nM

Structure (SMILES): CNC(C)C(=O)NC(C(=O)N1CCCC1Cc1c(Br)n(CCOCCOCCOC)c2cc(F)ccc12)C(C)(C)C (centres unmarked) [Entry 16-113]
- Kd [1]: < 100 nM

Structure (SMILES): CNC(C)C(=O)NC(C(=O)N1CCCC1Cc1c(-c2cccs2)n(CCOCCOCCOC)c2cc(F)ccc12)C(C)(C)C (centres unmarked) [Entry 16-114]
- Kd [1]: < 100 nM
